Test results: article PMC11606603, “The membrane domains of mammalian adenylyl cyclases are lipid receptors” (eLife, 2024)
Where “and” joins values, the source holds several entries; their conditions need not be identical. Identical values can stand only once.

Tests used:
Type in all cases: biochemical
mAC9 = target: T1, mAC9 (Homo sapiens, UniProt O60503); assay: AC assay, Gsα-stimulated mAC9 in membranes from transfected HEK293 cells; details: for mAC9 activity [%] (100% = 300nM Gsα stimulation); 20µM fatty acid concentration / mAC9 activity (%);(100% = Gsα stimulation) stimulated by 300nM Gsα: single experiments
T1 construct: Human mAC genes were from GenScript and fitted with a C-terminal FLAG-tag; FLAG (C); made in house; host or cells: HEK293, permanently transfected; membrane preparation
Procedure: (§1) hAC sequences were from NCBI were: ADCY1: NM_021116.3; ADCY2: NM_020546.2; ADCY3: NM_004036.4; ADCY4: NM_001198568.2; ADCY5: NM_183357.2; ADCY6: NM_015270.4; ADCY7: NM_001114.4; ADCY8: NM_001115.2; ADCY9: NM_001116.3. Human mAC genes were from GenScript and fitted with a C-terminal FLAG-tag. […] The gene was synthesized by GenScript. HEK293 cells were maintained in Dulbeccos Modified Eagle Medium (DMEM) with 10% fetal bovine serum at 37°C and 5% CO2. Transfection with AC plasmids was with PolyJet (SignaGen, Frederick, MD, USA). Permanent cell lines were generated by selection for 7 days with 600 µg/ml G418 and maintained with 300 µg/ml For membrane preparation, cells were tyrpsinized, collected by centrifugation (3000 × g, 5 min) and lysed and homogenized in 20 mM HEPES, pH 7.5, 1 mM Ethylenediaminetetraacetic acid (EDTA), 2 mM MgCl2, 1 mM Dithiothreitol (DTT), one tablet of cOmplete, EDTA-free (per 50 ml) and 250 mM sucrose by 20 strokes in a potter homogenizer on ice. Debris was removed (5 min at 1000 × g, 0°C), membranes were collected at 100,000 × g, 60 min at 0°C, suspended and stored at −80°C in 20 mM MOPS, pH 7.5, 0.5 mM EDTA, 2 mM MgCl2. […] Three cerebral cortices were dissected and homogenized in 4.5 ml cold 48 mM Tris–HCl, pH 7.4, 12 mM MgC1_2, and 0.1 mM Ethylene glycol-bis(β-aminoethyl ether)-N,N,N′,N′-tetraacetic acid (EGTA) with a Polytron hand disperser (Kinematica AG, Switzerland). […] The pellet was washed once with 5 ml 1 mM KHCO3. The final suspension in 2 ml 1 mM KHCO3 was stored in aliquots at −80°C.
(§2) In a volume of 10 μl, AC activities were measured using 1 mM ATP, 2 mM MgCl2, 3 mM creatine phosphate, 60 μg/ml creatine kinase, and 50 mM MOPS pH 7.5. The cAMP assay kit from Cisbio (Codolet, France) was used for detection according to the supplier’s instructions. For each assay, a cAMP standard curve was established. EC50 and IC50 values were calculated by GraphPad Prism version 8.4.3 for Windows, GraphPad Software, San Diego, CA, USA, https://www.graphpad.com .

mAC7 = target: T2, mAC7 (Homo sapiens, UniProt P51828); assay: AC assay, Gsα-stimulated mAC7 in membranes from transfected HEK293 cells; details: for mAC7 activity [%] (100% = 300nM Gsα stimulation); 20µM fatty acid concentration: Figure 5-figure supplement 2 left
T2 construct: Human mAC genes were from GenScript and fitted with a C-terminal FLAG-tag; FLAG (C); made in house; host or cells: HEK293, permanently transfected; membrane preparation
T2 sequence (P51828 whole entry): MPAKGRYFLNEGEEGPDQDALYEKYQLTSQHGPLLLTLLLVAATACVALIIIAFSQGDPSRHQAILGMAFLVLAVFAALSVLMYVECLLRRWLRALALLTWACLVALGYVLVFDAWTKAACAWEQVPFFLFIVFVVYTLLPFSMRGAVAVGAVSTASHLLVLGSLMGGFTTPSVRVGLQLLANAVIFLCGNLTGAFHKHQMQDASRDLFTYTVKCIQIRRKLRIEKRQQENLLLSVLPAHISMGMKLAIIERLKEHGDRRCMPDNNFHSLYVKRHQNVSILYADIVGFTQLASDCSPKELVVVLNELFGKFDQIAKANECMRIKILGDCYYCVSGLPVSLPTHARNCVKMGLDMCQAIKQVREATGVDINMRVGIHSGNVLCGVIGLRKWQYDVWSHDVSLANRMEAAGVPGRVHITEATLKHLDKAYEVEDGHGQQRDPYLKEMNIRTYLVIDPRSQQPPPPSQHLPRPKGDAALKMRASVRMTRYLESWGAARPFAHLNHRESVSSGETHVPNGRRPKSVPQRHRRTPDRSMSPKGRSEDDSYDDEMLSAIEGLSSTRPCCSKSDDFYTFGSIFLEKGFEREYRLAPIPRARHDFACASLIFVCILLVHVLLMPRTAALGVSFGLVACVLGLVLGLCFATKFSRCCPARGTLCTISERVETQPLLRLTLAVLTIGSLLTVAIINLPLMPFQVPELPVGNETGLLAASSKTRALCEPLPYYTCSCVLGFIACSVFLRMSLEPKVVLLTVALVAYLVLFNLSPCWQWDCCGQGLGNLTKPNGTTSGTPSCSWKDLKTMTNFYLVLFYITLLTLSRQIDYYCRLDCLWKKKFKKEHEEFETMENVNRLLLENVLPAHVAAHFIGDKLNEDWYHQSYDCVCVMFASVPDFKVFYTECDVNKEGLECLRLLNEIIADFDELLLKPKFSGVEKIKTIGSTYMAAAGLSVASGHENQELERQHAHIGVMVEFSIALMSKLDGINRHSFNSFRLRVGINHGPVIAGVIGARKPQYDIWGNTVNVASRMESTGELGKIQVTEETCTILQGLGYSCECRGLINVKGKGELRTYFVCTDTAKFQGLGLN
T2 sequence (P63092 2-394 Q227L partner): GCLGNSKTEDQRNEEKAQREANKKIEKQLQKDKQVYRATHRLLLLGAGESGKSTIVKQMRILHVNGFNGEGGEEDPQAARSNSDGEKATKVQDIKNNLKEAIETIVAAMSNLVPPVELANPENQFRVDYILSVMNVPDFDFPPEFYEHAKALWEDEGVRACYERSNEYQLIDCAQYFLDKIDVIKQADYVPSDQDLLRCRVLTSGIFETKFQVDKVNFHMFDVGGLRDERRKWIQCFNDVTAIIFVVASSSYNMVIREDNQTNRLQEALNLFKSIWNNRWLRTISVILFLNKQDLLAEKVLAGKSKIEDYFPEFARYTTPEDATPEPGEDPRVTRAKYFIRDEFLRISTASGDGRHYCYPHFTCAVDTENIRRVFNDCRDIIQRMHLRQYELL
Procedure: as §1, §2

mAC5 = target: T3, mAC5 (Homo sapiens, UniProt O95622); assay: AC assay, Gsα-stimulated mAC5 in membranes from transfected HEK293 cells; details: 20µM fatty acid concentration
T3 construct: Human mAC genes were from GenScript and fitted with a C-terminal FLAG-tag; FLAG (C); made in house; host or cells: HEK293, permanently transfected; membrane preparation
T3 sequence (O95622 whole entry): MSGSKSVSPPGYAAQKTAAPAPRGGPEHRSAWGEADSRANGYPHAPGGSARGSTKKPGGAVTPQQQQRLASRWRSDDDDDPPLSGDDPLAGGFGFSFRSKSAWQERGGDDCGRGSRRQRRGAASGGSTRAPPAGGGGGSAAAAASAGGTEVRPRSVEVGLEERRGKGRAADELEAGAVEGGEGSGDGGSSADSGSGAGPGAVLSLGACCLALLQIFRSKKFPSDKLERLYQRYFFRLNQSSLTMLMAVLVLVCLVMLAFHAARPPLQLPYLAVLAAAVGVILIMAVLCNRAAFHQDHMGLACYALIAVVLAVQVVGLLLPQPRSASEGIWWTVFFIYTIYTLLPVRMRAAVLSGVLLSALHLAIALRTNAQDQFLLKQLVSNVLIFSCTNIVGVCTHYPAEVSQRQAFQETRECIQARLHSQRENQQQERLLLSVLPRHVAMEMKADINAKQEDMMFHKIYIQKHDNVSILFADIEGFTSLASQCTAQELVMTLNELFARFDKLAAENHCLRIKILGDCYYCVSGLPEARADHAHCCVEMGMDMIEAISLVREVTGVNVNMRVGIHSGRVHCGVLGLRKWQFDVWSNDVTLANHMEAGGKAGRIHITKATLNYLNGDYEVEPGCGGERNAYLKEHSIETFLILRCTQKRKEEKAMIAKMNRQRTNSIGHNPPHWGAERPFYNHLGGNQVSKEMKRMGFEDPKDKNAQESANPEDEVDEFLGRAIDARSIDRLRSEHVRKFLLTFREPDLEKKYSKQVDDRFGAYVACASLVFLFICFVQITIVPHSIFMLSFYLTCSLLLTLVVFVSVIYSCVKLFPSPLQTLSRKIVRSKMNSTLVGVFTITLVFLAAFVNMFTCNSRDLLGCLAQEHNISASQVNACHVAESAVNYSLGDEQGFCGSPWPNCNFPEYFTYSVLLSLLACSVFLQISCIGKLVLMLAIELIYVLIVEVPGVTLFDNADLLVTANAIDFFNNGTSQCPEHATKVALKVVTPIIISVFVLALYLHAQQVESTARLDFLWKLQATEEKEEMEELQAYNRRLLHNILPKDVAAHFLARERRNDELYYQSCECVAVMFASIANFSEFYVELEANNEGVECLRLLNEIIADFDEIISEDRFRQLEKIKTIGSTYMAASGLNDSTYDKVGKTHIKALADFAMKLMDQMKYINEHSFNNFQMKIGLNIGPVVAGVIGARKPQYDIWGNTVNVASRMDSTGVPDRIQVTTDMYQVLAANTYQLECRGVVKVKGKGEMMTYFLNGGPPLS
Procedure: as §1, §2

mAC3 = target: T4, mAC3 (Homo sapiens, UniProt O60266); assay: AC assay, Gsα-stimulated mAC3 in membranes from transfected HEK293 cells; details: for mAC3 activity [%] (100% = 300nM Gsα stimulation): fatty acid 20 µM, individual experiments; for Effect of lipid on 300 nM Gsα-stimulated mAC3: 20 µM, in words
T4 construct: Human mAC genes were from GenScript and fitted with a C-terminal FLAG-tag; FLAG (C); made in house; host or cells: HEK293, permanently transfected; membrane preparation
Procedure: as §1, §2

mAC1 = target: T5, mAC1 (Homo sapiens, UniProt Q08828); assay: AC assay, Gsα-stimulated mAC1 in membranes from transfected HEK293 cells; details: for mAC1 activity [%] (100% = 300nM Gsα stimulation); 20µM fatty acid concentration: single experiments
T5 construct: Human mAC genes were from GenScript and fitted with a C-terminal FLAG-tag; FLAG (C); made in house; host or cells: HEK293, permanently transfected; membrane preparation
T5 sequence (Q08828 whole entry): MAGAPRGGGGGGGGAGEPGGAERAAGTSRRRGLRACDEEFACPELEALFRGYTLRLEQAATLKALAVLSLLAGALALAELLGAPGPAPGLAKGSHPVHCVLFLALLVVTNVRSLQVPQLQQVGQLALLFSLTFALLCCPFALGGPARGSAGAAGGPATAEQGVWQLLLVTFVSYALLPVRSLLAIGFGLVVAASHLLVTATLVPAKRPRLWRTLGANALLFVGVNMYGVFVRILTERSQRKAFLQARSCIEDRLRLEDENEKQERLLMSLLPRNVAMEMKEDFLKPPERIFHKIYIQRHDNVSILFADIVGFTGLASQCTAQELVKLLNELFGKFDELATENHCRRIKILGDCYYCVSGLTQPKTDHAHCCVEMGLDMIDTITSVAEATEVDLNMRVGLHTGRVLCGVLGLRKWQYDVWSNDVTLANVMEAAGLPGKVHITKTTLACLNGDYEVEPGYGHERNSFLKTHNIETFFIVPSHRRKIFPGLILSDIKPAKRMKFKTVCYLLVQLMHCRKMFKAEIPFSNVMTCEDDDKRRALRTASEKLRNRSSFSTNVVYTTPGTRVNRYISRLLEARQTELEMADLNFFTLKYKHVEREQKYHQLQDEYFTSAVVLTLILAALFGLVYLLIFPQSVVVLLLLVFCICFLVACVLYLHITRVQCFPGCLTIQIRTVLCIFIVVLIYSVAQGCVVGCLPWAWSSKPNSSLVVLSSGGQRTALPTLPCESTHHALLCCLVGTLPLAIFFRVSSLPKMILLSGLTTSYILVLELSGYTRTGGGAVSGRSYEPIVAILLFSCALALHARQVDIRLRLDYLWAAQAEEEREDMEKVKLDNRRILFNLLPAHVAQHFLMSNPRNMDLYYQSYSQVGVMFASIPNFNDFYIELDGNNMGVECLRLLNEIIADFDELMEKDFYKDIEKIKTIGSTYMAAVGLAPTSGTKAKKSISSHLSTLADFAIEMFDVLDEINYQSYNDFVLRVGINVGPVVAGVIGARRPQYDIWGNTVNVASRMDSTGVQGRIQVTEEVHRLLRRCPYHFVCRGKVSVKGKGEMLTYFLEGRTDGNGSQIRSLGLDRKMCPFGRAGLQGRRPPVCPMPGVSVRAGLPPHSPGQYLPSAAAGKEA
Procedure: as §1, §2

mAC2 = target: T6, mAC2 (Homo sapiens, UniProt Q08462); assay: AC assay, Gsα-stimulated mAC2 in membranes from transfected HEK293 cells; details: Figure 5-figure supplement 1 left, 20 µM
T6 construct: Human mAC genes were from GenScript and fitted with a C-terminal FLAG-tag; FLAG (C); made in house; host or cells: HEK293, permanently transfected; membrane preparation
T6 sequence (Q08462 whole entry): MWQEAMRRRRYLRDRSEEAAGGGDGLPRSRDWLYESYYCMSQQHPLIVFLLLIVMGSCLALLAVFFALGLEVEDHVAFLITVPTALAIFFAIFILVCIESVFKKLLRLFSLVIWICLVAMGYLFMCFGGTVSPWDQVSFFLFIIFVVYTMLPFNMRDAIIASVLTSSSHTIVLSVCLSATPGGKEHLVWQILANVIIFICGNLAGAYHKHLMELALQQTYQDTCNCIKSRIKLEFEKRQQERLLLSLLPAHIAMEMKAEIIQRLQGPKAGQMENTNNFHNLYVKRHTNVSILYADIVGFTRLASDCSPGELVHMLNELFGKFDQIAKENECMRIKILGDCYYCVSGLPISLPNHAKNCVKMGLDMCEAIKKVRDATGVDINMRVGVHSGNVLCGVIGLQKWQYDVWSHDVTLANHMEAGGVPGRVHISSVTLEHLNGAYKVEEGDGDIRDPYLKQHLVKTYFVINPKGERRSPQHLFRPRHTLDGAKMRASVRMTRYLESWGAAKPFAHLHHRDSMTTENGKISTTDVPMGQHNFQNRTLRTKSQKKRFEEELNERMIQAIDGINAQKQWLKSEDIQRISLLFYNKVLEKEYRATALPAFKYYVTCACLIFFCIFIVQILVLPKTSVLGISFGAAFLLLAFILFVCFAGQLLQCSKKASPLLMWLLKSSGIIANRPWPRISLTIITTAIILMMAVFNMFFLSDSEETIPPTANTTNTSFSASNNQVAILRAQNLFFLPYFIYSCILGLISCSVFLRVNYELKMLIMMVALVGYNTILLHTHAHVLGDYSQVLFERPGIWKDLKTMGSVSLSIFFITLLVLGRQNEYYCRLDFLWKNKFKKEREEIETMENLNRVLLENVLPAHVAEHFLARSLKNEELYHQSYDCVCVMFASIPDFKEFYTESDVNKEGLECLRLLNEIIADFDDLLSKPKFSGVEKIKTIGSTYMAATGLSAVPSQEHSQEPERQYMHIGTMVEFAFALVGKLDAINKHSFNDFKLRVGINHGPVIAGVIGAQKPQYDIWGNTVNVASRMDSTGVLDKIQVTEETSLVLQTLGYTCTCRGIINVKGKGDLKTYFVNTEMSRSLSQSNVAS
T6 sequence (P63092 2-394 Q227L partner): as the sequence (P63092 2-394 Q227L partner) above
Procedure: as §1, §2

mAC4 = target: T7, mAC4 (Homo sapiens, UniProt Q8NFM4); assay: AC assay, Gsα-stimulated mAC4 in membranes from transfected HEK293 cells; details: for mAC4 activity [%] (100% = 300nM Gsα stimulation); 20µM fatty acid concentration: single experiments
T7 construct: Human mAC genes were from GenScript and fitted with a C-terminal FLAG-tag; FLAG (C); made in house; host or cells: HEK293, permanently transfected; membrane preparation
T7 sequence (Q8NFM4 1-1077): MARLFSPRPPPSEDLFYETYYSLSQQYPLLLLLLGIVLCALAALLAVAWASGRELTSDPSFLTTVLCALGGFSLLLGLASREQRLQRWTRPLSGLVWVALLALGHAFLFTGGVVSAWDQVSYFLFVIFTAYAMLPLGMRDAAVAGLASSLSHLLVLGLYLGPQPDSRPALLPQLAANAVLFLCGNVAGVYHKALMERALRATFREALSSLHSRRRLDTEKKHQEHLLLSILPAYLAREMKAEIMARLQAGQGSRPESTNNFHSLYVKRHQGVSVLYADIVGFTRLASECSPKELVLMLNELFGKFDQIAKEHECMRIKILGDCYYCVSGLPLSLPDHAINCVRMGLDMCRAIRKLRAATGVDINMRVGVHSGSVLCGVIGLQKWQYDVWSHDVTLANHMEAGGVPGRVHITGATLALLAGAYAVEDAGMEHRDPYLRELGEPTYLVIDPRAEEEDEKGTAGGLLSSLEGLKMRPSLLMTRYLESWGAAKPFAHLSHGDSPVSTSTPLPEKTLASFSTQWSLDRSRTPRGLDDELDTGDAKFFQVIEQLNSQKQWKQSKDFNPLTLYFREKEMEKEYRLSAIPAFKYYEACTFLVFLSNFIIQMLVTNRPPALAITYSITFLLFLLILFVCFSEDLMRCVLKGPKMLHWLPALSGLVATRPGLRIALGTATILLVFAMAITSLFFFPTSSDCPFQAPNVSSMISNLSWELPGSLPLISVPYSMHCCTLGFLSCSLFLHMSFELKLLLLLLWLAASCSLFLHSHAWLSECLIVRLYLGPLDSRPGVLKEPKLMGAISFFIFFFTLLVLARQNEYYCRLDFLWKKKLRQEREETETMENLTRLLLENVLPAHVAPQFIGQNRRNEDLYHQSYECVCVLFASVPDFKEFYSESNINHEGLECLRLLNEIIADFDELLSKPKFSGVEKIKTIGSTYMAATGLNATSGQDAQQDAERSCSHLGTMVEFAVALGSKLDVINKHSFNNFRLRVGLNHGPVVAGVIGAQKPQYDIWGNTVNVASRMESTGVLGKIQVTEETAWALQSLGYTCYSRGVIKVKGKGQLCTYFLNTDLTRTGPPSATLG
Procedure: as §1, §2

mAC6 = target: T8, mAC6 (Homo sapiens, UniProt O43306); assay: AC assay, Gsα-stimulated mAC6 in membranes from transfected HEK293 cells; details: 20µM fatty acid concentration
T8 construct: Human mAC genes were from GenScript and fitted with a C-terminal FLAG-tag; FLAG (C); made in house; host or cells: HEK293, permanently transfected; membrane preparation
Procedure: as §1, §2

Molecule	mAC9 activity [%] (100% = 300nM Gsα stimulation); 20µM fatty acid concentration (mAC9)	mAC7 activity [%] (100% = 300nM Gsα stimulation); 20µM fatty acid concentration (mAC7)	mAC5 activity [%] (100% = 300nM Gsα stimulation) (mAC5)	mAC3 activity [%] (100% = 300nM Gsα stimulation) (mAC3)	mAC1 activity [%] (100% = 300nM Gsα stimulation); 20µM fatty acid concentration (mAC1)	Effect of lipid on 300 nM Gsα-stimulated mAC1 (mAC1; 20 µM, in words)	mAC2 activity [%] (100% = 300nM Gsα stimulation); 20µM fatty acid concentration (mAC2)	Effect of lipid on 300 nM Gsα-stimulated mAC4 (mAC4; 20 µM, in words)	mAC6 activity [%] (100% = 300nM Gsα stimulation) (mAC6)	Effect of lipid on 300 nM Gsα-stimulated mAC3 (mAC3)	mAC9 activity (%);(100% = Gsα stimulation) stimulated by 300nM Gsα (mAC9; 3 µM fatty acid)	mAC9 activity (%);(100% = Gsα stimulation) stimulated by 300nM Gsα (mAC9; 6 µM fatty acid)	EC50 (mAC9; enhancement of 300 nM Gsα-stimulated activity, read-out: EC50 for mAC9)	EC50 (mAC7; enhancement of 300 nM Gsα-stimulated activity)	activity at 0.3 µM (mAC7; read-out: mAC7 activity (%);(100% = Gsα stimulation) stimulated by 300nM Gsα, Elaidic acid 0.3 µM)	mAC4 activity [%] (100% = 300nM Gsα stimulation); 20µM fatty acid concentration (mAC4)
CCCCCCCC/C=C\CCCCCCCC(=O)OC(CO)CO [2-Oleoylglycerol]	131%	93%	96%	72%	–	–	–	–	–	–	–	–	–	–	–	–
CC/C=C\C/C=C\C/C=C\C/C=C\C/C=C\CCCC(=O)O [EPA, Eicosapentaenoic ((5Z,8Z,11Z,14Z,17Z)-eicosapentaenoic) acid]	–	113% and 166%	101% and 83%	169% and 200% and 266% and 160%	99% and 107% and 86% and 87%	no effect	102% and 159%	no effect	112% and 108%	less efficacious	–	–	–	–	–	–
CCCCCCCC/C=C/CCCCCCCC(=O)O [Elaidic acid, Elaidic ((9E)-octadecenoic) acid]	–	–	–	437% and 276% and 279% and 778% and 673%	72% and 100%	–	131%	–	101% and 97%	efficient enhancers	154% and 261% and 166% and 178%	346% and 329% and 316% and 303% and 243%	5 µM	9.7 µM	100%	130% and 156% and 151%
CC/C=C\C/C=C\C/C=C\CCCCCCCC(=O)O [Linolenic acid, Linolenic ((9Z,12Z,15Z)-octadecatrienoic) acid]	–	–	79% and 81%	159% and 177% and 241% and 105% and 288% and 273%	63% and 90%	–	99% and 105%	–	103% and 104%	less efficacious	144% and 110% and 75%	125% and 149% and 124% and 119% and 96%	–	–	–	62% and 65% and 86%
CCCCCCCC/C=C\CCCCCCCC(=O)OC [Me-Oleate, Methyl oleate]	86% and 143%	115% and 85%	60% and 91%	141% and 90%	99% and 63%	–	121% and 73%	–	78% and 90%	–	–	–	–	–	–	77% and 99%
O=C(O)CCCCCCCCCCCCCCCCCCC(=O)O [Octadecane-(COOH)2, 1,18-Octadecanedicarboxylic acid]	102% and 67%	81% and 97%	102% and 118% and 78%	104% and 106% and 66%	88% and 87% and 108%	–	101% and 81% and 91%	–	83% and 136% and 76%	–	–	–	–	–	–	91% and 73%
Triolein	107%	83%	95%	96%	–	–	–	–	–	–	–	–	–	–	–	–
